# Source: paper PMC10537604, “Development and Assessment of 1,5–Diarylpyrazole/Oxime Hybrids Targeting EGFR and JNK–2 as Antiproliferative Agents: A Comprehensive Study through Synthesis, Molecular Docking, and Evaluation” (Molecules, 2023)
# Test system: Hela cell line
# Test: Cell cycle analysis, PI staining, flow cytometry
# Type: cell-based, human
# Conditions: for cell cycle arrest phase: Hela, PI staining
# Procedure: This analysis was applied to investigate the effects of tested compounds on cell cycle distribution and on cell-death associated DNA fragmentation. The Hela cell line was analyzed flow cytometrically after propidium iodide (PI) staining, following the treatment of compounds 8g and 8i.
# The supernatant was transferred to falcon tube for each plate and each well was washed twice with 3 mL PBS, Trypsin 1 mL was added, and plates were incubated for 3 to 5 min at 37 degrees, then 3 mL of the medium was added to separate cells, cells were centrifuged for 5 min, and supernatant was decanted. Then, it was washed again with 3 mL PBS, and 10 mL of medium was added. Cells were immediately fixed in ice cold 70% ethanol overnight at −20 °C. On the day of the analysis, cells were washed ×3 with PBS and re-suspended in propidium iodide (PI) for 15 min at room temperature, protected from light. Cell-cycle analysis was performed using flowcytometric analysis (BD FACS melody) and data obtained from cell cycle distribution was analyzed using FSC-W (Watson model) to estimate the percentage of cells in G1, S, and G2.
SMILES,percentage of Hela cells at G2 phase (48 h) [%],cell cycle arrest phase,"percentage of Hela cells at G2 phase (IC50 concentration, 24 h) [%]","percentage of Hela cells at S phase (IC50 concentration, 24 h) [%]"
"COc1cc(/C(C)=N/O)ccc1OC(=O)c1cc(-c2ccc(C)cc2)n(-c2ccc(S(N)(=O)=O)cc2)n1 [Compound 8g, (E)–4–(1–(Hydroxyimino)ethyl)–2–methoxyphenyl 1–(4–sulfamoylphenyl)–5–p–tolyl–1H–pyrazole–3–carboxylate]",20.5,G2/M arrest,,
"COc1cc(/C(C)=N/O)ccc1OC(=O)c1cc(-c2ccc(Cl)cc2)n(-c2ccc(S(N)(=O)=O)cc2)n1 [Compound 8i, (E)–4–(1–(Hydroxyimino)ethyl)–2–methoxyphenyl 5–(4–chlorophenyl)–1–(4–sulfamoyl phenyl)–1H–pyrazole–3–carboxylate]",,combined S phase and G2 phase arrest,18.2,59.4
